Test results reported in BindingDB's records for doi:10.1021/jm0201417 (University of Southern California, 2002).

Experiments:
[1] = Effective concentration of the compound against viral replication by Reverse transcriptase
[2] = Inhibitory activity against viral attachment

SMILES	EC50 [1]	IC50 [2]
O=C1NNC(=O)c2ccccc2SSc2ccccc2C(=O)NNC(=O)c2ccccc2SSc2ccccc21 [11,12,13,14,25,26,27,28-octahydrotetrabenzo[c,i,m,s][1,2,11,12,6,7,16,17]tetrathiatetraazacycloicosine-11,14,25,28-tetraone]	6 µM	
O=C(NNC(=O)c1ccccc1SSc1ccccc1C(=O)NNC(=O)c1ccccc1S)c1ccccc1S [Compound 3]	17.8 µM	> 100 µM
O=C(NNC(=O)c1ccccc1S)c1ccccc1S [2-Mercapto-benzoic acid N'-(2-mercapto-benzoyl)-hydrazide]	4.3 µM	> 100 µM
